The values that follow come from ChEMBL document CHEMBL5678818, “Discovery of potent SOS1 inhibitors that block RAS activation via disruption of the RAS-SOS1 interaction” (Proc Natl Acad Sci U S A, 2019).

Assay [1] has as its target SRSF protein kinase 2 (Homo sapiens) (UniProt P78362). Description: Inhibition of SRPK2 (unknown origin) assessed as residual activity at 1000 nM by KINOMEscan analysis relative to control.
For assay [2], the system named is Tyrosine-protein kinase ABL1 (Homo sapiens), P00519 [Y253F]. Description: Inhibition of phosphorylated ABL1 Y253F mutant (unknown origin) assessed as residual activity at 1000 nM by KINOMEscan analysis relative to control.
Assay [3] has as its target Tyrosine-protein kinase JAK2 (Homo sapiens) (UniProt O60674). Description: Inhibition of JAK2 JH1 catalytic domain (unknown origin) assessed as residual activity at 1000 nM by KINOMEscan analysis relative to control.
Assay [4] addresses T1, Serine/threonine-protein kinase LATS2 (Homo sapiens) (UniProt Q9NRM7).
T1 sequence (whole entry): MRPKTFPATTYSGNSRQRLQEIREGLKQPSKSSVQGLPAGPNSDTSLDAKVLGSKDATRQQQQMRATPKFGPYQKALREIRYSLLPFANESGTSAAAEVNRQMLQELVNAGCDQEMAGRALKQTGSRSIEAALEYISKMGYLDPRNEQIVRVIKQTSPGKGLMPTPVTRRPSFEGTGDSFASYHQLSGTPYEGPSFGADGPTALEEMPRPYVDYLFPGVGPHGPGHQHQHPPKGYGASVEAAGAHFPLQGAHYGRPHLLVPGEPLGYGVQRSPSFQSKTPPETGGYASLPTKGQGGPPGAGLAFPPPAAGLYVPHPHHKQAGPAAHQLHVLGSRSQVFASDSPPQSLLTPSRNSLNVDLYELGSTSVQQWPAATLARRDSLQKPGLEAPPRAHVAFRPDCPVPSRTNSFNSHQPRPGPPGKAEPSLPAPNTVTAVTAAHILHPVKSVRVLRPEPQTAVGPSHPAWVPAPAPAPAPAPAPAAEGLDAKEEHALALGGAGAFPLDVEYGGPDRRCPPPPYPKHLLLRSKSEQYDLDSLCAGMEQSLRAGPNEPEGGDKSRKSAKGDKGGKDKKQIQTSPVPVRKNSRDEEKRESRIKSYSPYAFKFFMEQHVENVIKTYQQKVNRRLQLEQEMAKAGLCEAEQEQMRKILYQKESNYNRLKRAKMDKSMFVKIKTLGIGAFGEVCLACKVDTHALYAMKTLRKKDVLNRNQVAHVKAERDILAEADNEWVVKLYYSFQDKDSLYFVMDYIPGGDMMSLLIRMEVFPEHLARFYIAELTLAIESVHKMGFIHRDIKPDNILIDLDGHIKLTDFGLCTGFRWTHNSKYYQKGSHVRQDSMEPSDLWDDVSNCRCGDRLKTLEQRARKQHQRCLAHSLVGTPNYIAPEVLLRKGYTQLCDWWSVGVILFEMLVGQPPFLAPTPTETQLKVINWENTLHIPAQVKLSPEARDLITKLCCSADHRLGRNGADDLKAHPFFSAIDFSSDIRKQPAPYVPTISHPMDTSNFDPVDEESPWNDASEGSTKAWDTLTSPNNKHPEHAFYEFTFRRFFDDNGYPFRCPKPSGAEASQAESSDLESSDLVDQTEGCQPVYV
Description: Inhibition of LATS2 (unknown origin) assessed as residual activity at 1000 nM by KINOMEscan analysis relative to control.

Assay [5] concerns Mast/stem cell growth factor receptor Kit (Homo sapiens), P10721 [A829P]. Description: Inhibition of KIT A829P mutant (unknown origin) assessed as residual activity at 1000 nM by KINOMEscan analysis relative to control.
In assay [6] the target is T2, Protein kinase C epsilon type (Homo sapiens) (UniProt Q02156).
T2 sequence (whole entry): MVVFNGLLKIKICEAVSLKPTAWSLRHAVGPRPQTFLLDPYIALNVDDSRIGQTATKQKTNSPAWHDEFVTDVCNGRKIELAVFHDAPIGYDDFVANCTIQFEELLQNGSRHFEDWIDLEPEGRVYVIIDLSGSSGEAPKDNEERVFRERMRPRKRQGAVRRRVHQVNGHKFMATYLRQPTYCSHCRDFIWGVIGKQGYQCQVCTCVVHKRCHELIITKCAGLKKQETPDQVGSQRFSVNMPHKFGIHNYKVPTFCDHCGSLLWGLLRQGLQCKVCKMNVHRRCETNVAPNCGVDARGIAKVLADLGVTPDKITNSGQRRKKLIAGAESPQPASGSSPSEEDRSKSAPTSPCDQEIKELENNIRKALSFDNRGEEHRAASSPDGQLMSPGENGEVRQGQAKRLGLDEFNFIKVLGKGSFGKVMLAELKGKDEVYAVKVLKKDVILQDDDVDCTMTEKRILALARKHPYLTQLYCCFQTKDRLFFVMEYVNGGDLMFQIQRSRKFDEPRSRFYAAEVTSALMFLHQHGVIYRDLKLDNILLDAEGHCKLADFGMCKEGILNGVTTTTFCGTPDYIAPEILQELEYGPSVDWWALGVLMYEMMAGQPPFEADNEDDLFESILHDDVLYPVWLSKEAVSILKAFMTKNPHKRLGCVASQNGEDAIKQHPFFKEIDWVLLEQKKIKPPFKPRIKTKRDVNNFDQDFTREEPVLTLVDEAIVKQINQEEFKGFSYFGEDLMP
Description: Inhibition of PRKCE (unknown origin) assessed as residual activity at 1000 nM by KINOMEscan analysis relative to control.

In assay [7] the target is Dual specificity protein kinase CLK1 (Homo sapiens) (UniProt P49759). Kind of assay: Inhibition of CLK1 (unknown origin) assessed as residual activity at 1000 nM by KINOMEscan analysis relative to control.
In assay [8] the target is T3, Serine/threonine-protein kinase Nek11 (Homo sapiens) (UniProt Q8NG66).
T3 sequence (whole entry): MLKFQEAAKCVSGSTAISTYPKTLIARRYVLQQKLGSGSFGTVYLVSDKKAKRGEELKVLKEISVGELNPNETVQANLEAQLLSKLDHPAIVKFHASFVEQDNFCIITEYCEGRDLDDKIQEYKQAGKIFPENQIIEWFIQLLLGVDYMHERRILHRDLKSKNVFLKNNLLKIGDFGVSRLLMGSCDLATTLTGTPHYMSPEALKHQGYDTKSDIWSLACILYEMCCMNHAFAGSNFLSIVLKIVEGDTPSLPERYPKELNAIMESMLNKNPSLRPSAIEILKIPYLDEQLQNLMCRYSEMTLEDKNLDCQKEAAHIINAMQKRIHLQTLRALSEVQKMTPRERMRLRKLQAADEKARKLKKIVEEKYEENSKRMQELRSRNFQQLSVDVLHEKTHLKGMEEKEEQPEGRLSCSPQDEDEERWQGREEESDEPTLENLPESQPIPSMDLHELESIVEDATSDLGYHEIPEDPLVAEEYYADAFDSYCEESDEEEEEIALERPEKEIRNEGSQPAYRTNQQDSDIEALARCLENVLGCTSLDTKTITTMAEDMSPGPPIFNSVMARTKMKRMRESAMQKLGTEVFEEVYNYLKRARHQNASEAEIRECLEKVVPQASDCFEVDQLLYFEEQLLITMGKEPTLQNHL
Description: Inhibition of NEK11 (unknown origin) assessed as residual activity at 1000 nM by KINOMEscan analysis relative to control.

SMILES strings stand for the structures.

Sequence of SRSF protein kinase 2 (Homo sapiens) (P78362 whole entry, looked up): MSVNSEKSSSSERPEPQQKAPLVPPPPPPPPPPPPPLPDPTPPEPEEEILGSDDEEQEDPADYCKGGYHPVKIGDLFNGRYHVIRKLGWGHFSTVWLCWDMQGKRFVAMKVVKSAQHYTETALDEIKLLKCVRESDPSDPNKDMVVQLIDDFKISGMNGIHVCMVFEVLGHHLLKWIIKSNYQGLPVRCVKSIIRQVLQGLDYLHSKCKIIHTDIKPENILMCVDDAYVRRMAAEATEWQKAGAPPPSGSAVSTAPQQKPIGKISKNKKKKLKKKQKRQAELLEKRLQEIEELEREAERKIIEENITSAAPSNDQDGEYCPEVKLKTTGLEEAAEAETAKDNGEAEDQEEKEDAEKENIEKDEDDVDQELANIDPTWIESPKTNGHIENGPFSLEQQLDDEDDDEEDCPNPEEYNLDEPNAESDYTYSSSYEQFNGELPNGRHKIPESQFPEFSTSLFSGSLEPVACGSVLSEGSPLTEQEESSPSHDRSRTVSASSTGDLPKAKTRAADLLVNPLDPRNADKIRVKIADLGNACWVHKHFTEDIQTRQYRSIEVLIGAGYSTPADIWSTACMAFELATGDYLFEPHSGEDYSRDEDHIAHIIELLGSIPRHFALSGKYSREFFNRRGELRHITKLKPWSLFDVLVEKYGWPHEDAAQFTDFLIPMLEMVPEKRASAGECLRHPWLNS
Sequence of Mast/stem cell growth factor receptor Kit (Homo sapiens), P10721 [A829P] (P10721 whole entry A829P): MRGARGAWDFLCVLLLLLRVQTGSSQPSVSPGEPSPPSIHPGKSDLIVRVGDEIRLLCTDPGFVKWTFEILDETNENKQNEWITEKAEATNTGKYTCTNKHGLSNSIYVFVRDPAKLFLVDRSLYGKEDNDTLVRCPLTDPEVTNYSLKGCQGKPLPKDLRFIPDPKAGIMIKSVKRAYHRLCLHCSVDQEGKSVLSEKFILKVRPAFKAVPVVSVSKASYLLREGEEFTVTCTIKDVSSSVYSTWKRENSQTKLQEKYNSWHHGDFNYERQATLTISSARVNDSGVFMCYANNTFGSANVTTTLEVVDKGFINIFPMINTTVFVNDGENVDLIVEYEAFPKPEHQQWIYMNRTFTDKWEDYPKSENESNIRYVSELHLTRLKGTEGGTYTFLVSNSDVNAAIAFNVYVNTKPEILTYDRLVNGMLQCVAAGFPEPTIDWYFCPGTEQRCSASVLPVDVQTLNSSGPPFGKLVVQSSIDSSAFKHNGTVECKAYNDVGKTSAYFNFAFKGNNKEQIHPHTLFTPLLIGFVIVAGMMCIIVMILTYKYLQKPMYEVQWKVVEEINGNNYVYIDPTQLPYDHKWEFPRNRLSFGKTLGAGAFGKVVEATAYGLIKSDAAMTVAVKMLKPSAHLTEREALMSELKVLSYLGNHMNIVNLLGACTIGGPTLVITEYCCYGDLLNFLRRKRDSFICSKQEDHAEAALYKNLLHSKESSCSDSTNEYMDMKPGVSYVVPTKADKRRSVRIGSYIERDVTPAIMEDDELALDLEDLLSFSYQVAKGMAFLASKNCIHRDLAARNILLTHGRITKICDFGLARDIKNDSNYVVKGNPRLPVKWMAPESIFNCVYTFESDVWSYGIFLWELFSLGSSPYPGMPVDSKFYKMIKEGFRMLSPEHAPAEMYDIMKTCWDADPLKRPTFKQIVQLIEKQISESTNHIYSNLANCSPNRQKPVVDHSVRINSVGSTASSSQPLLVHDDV
Sequence of Dual specificity protein kinase CLK1 (Homo sapiens) (P49759 whole entry, looked up): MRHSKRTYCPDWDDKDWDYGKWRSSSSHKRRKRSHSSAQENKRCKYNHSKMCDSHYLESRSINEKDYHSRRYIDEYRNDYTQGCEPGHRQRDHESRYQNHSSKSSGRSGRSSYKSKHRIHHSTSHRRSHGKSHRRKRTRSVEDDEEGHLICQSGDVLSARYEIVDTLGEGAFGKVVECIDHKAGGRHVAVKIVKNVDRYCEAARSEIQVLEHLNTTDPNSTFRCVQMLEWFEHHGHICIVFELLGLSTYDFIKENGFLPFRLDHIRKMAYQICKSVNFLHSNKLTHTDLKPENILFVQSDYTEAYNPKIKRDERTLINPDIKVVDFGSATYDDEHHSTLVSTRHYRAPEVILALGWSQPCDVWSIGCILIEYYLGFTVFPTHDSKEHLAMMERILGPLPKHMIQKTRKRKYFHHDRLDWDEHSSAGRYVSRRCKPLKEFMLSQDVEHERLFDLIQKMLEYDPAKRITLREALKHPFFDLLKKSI
Sequence of Tyrosine-protein kinase JAK2 (Homo sapiens) (O60674 whole entry, the tested form may be a part): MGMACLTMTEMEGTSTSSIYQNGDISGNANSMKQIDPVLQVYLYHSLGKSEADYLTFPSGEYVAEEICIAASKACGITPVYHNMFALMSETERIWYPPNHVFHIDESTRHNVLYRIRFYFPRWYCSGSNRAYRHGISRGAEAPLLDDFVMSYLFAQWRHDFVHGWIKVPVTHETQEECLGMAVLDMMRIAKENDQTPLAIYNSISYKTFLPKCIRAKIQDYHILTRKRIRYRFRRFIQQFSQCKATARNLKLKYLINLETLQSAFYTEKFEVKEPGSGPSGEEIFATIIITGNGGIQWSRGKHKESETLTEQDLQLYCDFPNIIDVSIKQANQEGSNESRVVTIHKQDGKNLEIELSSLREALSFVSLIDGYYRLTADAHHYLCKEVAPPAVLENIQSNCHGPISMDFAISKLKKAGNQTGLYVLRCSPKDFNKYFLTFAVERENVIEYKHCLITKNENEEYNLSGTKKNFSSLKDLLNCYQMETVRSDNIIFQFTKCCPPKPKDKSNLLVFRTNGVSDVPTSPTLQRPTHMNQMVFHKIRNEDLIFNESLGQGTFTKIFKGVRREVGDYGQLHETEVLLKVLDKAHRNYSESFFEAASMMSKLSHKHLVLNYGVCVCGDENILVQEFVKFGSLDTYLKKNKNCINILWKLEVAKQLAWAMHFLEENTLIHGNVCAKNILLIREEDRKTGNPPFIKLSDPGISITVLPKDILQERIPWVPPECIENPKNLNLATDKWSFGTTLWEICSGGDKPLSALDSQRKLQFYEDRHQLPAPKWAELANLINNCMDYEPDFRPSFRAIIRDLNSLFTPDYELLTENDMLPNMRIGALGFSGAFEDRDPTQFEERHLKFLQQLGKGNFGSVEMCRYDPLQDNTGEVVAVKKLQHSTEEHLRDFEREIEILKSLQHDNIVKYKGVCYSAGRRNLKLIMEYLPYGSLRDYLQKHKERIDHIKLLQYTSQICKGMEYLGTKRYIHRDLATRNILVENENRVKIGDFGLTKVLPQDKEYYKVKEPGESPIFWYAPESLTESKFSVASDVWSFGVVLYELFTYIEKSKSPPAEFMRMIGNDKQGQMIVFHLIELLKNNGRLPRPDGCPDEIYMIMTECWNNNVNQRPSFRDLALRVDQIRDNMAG

`COc1cc2ncnc(N[C@H](C)c3cccc4ccccc34)c2cc1OC`: the Activity in assay [1] is 93%; in assay [2] it was 79%; in assay [3] it was 89%; in assay [4], 89%; in assay [5], 94%; in assay [6], 95%. Further, the values for the Activity in assay [7] and in assay [8] were 100% and 81%, respectively.

As to `COc1cc2nc(C)nc(N[C@H](C)c3cccc(-c4cn[nH]c4)c3)c2cc1OC`, the Activity in assay [1] was 94%; in assay [2], 92%; in assay [3] it was 74%; in assay [4], 100%; in assay [5] it was 93%; in assay [6] it was 80%. Further, the results for the Activity in assay [7] and in assay [8] were 70% and 93%, respectively.
